Reference: PMC5513037, “Examining the influence of specificity ligands and ATP-competitive ligands on the overall effectiveness of bivalent kinase inhibitors” (Proteome Science, 2017)
One block for each molecule: values may come before it.

Key:
PSKH1 = PSKH1 (Homo sapiens, UniProt P11801); assay: biochemical
ATM = ATM (Homo sapiens, UniProt Q13315); assay: biochemical
PSKH2 = PSKH2 (Homo sapiens, UniProt Q96QS6); assay: biochemical
AAK1 = molecular target: T1, AAK1 (Homo sapiens, UniProt Q2M2I8); assay: KAM-matrix competition in K562 lysate; format: binding
T1 construct: endogenous in cells; host or cells: K562
Procedure: (§1) For synthesis of KAM-derivatized resin, packed NHS-activated sepharose 4 fast flow resin (volume = 2 mL; GE Healthcare) was washed with anhydrous DMSO (3 × 10 mL). To the washed NHS-activated sepharose resin was added 0.5 mM KAM in anhydrous DMSO (8 mL; 2 μmol compound/mL of resin), followed by the addition of triethylamine (30 μL). The reaction mixture was vortexed to mix and pelleted by centrifugation (100 x g, 2 min). An aliquot of the supernatant (50 μL) was saved for LC/MS analysis. The reaction mixture was allowed incubate overnight at room temp with end-over-end rotating agitation. On the following day, the reaction mixture was pelleted by centrifugation (100 x g, 2 min). An aliquot of the supernatant (50 μL) was saved for LC/MS analysis. […] 2-(2-Aminoethoxy)ethanol (100 μL; Sigma-Aldrich) was added to the reaction mixture, vortexed, and incubate overnight at room temp with end-over-end agitation. The KAM-derivatized resin was then washed with anhydrous DMSO (3 × 10 mL) and 95% EtOH (3 × 10 mL).
(§2) Data were visualized for further analysis using Spotfire DXP.

CDK9 = molecular target: T2, CDK9 (Homo sapiens, UniProt P50750); assay: KAM-matrix competition in K562 lysate; format: binding
T2 construct: endogenous in cells; host or cells: K562
Procedure: as §1, §2

GSK3A = molecular target: T3, GSK3A (Homo sapiens, UniProt P49840); assay: KAM-matrix competition in K562 lysate; format: binding
T3 construct: endogenous in cells; host or cells: K562
Procedure: as §1, §2

GSK3B = molecular target: T4, GSK3B (Homo sapiens, UniProt P49841); assay: KAM-matrix competition in K562 lysate; format: binding
T4 construct: endogenous in cells; host or cells: K562
Procedure: as §1, §2

NEK9 = molecular target: T5, NEK9 (Homo sapiens, UniProt Q8TD19); assay: KAM-matrix competition in K562 lysate; format: binding
T5 construct: endogenous in cells; host or cells: K562
T5 sequence (Q8TD19 1-979): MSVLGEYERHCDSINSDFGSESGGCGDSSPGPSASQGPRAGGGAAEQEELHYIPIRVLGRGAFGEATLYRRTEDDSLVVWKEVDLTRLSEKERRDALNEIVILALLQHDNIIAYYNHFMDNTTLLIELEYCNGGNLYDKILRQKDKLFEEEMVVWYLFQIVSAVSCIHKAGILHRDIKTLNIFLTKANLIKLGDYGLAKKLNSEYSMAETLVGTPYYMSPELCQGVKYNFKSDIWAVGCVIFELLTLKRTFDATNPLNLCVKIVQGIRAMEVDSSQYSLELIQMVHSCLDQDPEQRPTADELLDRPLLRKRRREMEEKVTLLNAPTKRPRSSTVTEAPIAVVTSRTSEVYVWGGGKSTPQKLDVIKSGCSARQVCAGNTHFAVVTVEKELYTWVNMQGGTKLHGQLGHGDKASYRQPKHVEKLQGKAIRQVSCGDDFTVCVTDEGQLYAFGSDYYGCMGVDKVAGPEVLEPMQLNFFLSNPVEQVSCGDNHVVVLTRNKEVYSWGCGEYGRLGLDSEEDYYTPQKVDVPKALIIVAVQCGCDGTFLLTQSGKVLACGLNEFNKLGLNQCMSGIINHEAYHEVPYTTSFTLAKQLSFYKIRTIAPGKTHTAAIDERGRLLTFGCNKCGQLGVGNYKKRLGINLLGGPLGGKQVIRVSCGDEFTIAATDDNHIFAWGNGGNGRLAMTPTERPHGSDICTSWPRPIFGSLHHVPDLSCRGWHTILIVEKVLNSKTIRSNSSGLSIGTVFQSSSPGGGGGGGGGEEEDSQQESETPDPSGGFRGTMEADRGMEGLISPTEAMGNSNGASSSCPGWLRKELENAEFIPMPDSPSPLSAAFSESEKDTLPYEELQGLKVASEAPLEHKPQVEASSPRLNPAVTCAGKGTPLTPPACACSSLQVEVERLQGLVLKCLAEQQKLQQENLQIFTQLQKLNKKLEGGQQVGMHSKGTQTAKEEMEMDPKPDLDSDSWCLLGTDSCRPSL
Procedure: as §1, §2

TAF1L = molecular target: T6, TAF1L (Homo sapiens, UniProt Q8IZX4); assay: KAM-matrix competition in K562 lysate; format: binding; conditions: relative to 0 uM KAM = 0;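 also: median log10 fold change of treatment over DMSO control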
T6 construct: endogenous in cells; host or cells: K562
Procedure: Supplement 12953_2017_125_MOESM1_ESM.zip/MS_Supp Info.xlsx, sheet "KAM" | column: 1 uM KAM; 0.01 uM KAM

T2 sequence (P50750 whole entry): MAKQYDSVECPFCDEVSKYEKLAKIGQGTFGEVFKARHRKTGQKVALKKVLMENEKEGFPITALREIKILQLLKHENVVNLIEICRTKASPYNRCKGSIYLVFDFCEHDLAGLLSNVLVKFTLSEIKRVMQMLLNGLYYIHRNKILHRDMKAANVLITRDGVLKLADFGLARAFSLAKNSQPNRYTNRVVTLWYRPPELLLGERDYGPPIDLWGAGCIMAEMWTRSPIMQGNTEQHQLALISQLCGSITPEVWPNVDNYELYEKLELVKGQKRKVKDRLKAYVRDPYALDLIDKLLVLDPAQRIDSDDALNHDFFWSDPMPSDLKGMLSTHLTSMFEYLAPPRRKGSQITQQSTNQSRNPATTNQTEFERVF
T2 sequence (O60563 whole entry partner): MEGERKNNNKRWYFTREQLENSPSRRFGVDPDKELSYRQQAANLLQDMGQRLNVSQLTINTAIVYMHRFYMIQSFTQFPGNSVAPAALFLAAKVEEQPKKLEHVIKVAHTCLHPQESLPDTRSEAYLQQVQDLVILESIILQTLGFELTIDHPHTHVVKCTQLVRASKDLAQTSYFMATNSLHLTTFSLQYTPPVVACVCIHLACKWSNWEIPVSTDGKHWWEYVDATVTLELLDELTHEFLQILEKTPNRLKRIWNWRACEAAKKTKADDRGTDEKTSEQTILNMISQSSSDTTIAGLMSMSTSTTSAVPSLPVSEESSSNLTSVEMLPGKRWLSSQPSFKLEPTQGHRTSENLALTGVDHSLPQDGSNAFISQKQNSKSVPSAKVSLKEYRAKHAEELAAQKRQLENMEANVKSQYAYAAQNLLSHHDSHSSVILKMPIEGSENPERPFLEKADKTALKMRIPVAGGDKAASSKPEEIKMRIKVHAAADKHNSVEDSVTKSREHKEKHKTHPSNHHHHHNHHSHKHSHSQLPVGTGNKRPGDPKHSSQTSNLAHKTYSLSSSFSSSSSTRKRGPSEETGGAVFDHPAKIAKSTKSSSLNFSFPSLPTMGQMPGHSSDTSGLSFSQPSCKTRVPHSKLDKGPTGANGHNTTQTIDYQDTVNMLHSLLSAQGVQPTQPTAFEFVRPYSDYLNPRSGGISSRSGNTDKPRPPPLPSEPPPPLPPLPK
T3 sequence (P49840 whole entry): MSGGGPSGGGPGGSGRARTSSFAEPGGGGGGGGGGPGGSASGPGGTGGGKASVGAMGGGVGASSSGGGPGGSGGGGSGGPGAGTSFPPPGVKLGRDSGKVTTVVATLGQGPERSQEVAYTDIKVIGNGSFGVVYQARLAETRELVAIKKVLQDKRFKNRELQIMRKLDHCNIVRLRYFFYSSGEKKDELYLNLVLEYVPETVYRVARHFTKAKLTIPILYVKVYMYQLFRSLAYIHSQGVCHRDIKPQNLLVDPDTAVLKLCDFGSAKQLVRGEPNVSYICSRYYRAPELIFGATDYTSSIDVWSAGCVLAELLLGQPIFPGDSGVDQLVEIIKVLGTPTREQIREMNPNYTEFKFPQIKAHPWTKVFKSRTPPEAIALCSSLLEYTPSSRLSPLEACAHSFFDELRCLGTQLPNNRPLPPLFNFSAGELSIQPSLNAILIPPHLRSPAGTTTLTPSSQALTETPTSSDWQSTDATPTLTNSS
T4 sequence (P49841 whole entry): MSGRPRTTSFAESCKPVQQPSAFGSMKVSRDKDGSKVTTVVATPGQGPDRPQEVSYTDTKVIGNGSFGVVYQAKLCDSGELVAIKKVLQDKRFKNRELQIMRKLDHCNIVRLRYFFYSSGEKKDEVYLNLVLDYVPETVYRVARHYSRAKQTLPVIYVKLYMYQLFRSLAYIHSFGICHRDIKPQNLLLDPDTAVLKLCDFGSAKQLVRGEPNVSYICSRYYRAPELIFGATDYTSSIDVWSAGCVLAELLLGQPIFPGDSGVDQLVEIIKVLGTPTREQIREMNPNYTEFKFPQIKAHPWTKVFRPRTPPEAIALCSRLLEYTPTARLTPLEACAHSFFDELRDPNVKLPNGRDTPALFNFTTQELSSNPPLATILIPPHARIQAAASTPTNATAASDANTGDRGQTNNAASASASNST
T1 sequence (Q2M2I8 whole entry): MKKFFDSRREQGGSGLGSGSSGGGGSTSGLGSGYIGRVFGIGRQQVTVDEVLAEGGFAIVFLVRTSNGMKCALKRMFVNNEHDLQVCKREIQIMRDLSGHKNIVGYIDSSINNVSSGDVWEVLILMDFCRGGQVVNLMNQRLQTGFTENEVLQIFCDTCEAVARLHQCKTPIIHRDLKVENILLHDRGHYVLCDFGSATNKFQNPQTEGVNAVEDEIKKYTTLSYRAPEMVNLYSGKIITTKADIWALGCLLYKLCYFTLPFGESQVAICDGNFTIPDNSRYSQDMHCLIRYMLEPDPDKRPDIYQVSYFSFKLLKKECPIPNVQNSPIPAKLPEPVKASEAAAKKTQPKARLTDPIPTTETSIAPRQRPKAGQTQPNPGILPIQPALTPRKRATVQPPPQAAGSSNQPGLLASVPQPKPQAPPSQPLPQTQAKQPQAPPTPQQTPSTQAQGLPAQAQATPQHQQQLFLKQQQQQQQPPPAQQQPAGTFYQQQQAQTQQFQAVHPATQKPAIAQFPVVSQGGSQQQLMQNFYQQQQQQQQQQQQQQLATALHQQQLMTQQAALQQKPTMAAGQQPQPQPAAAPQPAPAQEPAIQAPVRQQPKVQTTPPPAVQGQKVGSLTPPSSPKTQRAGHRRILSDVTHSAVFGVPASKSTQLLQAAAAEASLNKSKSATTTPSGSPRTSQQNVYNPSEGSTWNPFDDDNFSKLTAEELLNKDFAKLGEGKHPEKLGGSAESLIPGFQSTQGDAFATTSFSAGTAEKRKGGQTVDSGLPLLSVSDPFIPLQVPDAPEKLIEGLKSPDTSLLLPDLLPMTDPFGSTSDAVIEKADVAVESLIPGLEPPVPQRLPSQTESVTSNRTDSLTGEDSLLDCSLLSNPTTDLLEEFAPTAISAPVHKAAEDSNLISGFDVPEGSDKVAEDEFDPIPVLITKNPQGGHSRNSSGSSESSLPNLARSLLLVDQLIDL
T6 sequence (Q8IZX4 whole entry): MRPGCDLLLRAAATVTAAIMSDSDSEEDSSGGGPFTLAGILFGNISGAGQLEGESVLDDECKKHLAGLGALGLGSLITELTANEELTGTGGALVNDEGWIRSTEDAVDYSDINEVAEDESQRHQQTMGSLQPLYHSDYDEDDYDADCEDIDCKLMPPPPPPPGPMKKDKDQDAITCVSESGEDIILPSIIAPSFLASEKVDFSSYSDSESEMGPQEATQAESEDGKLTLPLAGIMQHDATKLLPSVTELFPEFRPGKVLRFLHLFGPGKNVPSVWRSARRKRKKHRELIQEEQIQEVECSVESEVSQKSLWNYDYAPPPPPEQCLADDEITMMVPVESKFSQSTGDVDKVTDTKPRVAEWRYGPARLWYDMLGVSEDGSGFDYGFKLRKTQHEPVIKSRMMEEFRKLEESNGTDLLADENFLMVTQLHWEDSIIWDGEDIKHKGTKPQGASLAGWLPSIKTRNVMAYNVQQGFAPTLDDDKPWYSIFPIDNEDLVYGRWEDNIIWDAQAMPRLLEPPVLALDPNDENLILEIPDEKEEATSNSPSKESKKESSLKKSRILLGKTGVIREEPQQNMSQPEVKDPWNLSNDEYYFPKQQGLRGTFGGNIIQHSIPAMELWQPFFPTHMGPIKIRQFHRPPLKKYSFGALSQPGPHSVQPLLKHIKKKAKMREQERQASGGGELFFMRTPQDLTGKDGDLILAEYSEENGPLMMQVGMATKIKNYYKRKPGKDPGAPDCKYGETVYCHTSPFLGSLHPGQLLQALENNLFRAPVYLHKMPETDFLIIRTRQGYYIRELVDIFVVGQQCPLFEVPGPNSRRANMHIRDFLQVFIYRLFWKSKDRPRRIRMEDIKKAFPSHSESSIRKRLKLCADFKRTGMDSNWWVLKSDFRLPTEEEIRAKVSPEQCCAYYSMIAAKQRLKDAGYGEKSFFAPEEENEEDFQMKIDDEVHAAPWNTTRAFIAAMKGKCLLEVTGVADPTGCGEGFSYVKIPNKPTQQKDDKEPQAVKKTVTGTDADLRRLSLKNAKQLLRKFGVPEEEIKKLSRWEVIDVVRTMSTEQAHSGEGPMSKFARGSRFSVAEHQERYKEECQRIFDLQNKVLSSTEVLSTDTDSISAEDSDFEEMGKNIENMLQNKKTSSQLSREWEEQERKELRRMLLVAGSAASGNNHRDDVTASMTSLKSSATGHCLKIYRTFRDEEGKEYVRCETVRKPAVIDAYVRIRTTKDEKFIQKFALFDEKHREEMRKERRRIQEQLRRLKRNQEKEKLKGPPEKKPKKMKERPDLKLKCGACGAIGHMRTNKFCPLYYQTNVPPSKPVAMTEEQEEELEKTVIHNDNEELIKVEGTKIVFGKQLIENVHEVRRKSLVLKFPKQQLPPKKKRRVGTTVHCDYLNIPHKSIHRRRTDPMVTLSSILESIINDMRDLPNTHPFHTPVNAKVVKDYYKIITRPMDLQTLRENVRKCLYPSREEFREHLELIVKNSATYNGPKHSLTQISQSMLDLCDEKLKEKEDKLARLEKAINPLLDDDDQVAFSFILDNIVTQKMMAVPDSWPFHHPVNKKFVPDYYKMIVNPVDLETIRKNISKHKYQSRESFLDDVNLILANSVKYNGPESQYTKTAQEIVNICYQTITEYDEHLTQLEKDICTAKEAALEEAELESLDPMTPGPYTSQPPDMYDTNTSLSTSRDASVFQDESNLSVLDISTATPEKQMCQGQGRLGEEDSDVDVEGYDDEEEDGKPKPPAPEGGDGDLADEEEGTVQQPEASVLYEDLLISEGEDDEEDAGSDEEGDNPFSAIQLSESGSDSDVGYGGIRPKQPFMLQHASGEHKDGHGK

IC50 (PSKH1): > 10 µM | IC50 (ATM): > 10 µM | IC50 (PSKH2): > 10 µM
Structure (SMILES): Cc1ccc(NC(=O)c2ccc(CN3CCN(C)CC3)cc2)cc1Nc1nccc(-c2cccnc2)n1 [Imatinib]

Structure (SMILES): N#CCc1ccc(Nc2nc(NCCCN)cc(Nc3cc(C4CC4)[nH]n3)n2)cc1 [KAM]
median Log10 fold change (AAK1; 0.001 uM KAM): -0.03432 | median Log10 fold change (AAK1; 0.01 uM KAM): -0.41 | median Log10 fold change (AAK1; 0.1 uM KAM): -0.6175 | median Log10 fold change (AAK1; 1 uM KAM): -0.6778 | median Log10 fold change (AAK1; 10 uM KAM): -0.7219 | IC50 (AAK1; AAK1, KAM-based affinity matrix, K562 lysates, read-out: RB50 (the source's name)): 0.008 µM | median Log10 fold change (CDK9; 0.001 uM KAM): -0.01348 | median Log10 fold change (CDK9; 0.01 uM KAM): -0.02502 | median Log10 fold change (CDK9; 0.1 uM KAM): -0.3345 | median Log10 fold change (CDK9; 1 uM KAM): -0.6226 | median Log10 fold change (CDK9; 10 uM KAM): -0.7136 | IC50 (CDK9; CDK9, KAM-based affinity matrix, K562 lysates, read-out: RB50 (the source's name)): 0.112 µM | median Log10 fold change (GSK3A; 0.001 uM KAM): 0.002359 | median Log10 fold change (GSK3A; 0.01 uM KAM): -0.1849 | median Log10 fold change (GSK3A; 0.1 uM KAM): -0.4791 | median Log10 fold change (GSK3A; 1 uM KAM): -0.5469 | median Log10 fold change (GSK3A; 10 uM KAM): -0.4904 | IC50 (GSK3A; GSK3A, KAM-based affinity matrix, K562 lysates, read-out: RB50 (the source's name)): 0.037 µM | median Log10 fold change (GSK3B; 0.001 uM KAM): 0.01354 | median Log10 fold change (GSK3B; 0.01 uM KAM): -0.16 | median Log10 fold change (GSK3B; 0.1 uM KAM): -0.4584 | median Log10 fold change (GSK3B; 1 uM KAM): -0.606 | median Log10 fold change (GSK3B; 10 uM KAM): -0.568 | IC50 (GSK3B; GSK3B, KAM-based affinity matrix, K562 lysates, read-out: RB50 (the source's name)): 0.045 µM | median Log10 fold change (NEK9; 0.001 uM KAM): 0.04943 | median Log10 fold change (NEK9; 0.01 uM KAM): -0.06045 | median Log10 fold change (NEK9; 0.1 uM KAM): -0.3899 | median Log10 fold change (NEK9; 1 uM KAM): -0.6054 | median Log10 fold change (NEK9; 10 uM KAM): -0.6016 | IC50 (NEK9; NEK9, KAM-based affinity matrix, K562 lysates, read-out: RB50 (the source's name)): 0.086 µM | 0.01 uM KAM (TAF1L): 0.1793 | 1 uM KAM (TAF1L): -0.2683
